Laboratory results taken from PMC9221108 (2022).
Each block holds one molecule with its values, some of them ahead of it.

Key:
[1] = test system: 5AG4-FAM (DNA, G4) AAAAAGGGTGGGTGGGTGGGTTTTT; test: FAM fluorescence quenching on hemin addition; settings: K+ (varied); 10 mM Tris-HCl pH 8.4; K+-folded parallel G4
[2] = test system: 5AG4 (DNA, G4) AAAAAGGGTGGGTGGGTGGGTTTTT; test: SGI fluorescence quenching on hemin addition; settings: K+ (varied); 10 mM Tris-HCl pH 8.4, 0.2% Tween 20, 0.3x SGI; K+-folded parallel G4
[3] = test system: OTAapt31 (DNA, aptamer) GATCGGGTGTGGGTGGCGTAAAGGGAGCATC; test: SGI fluorescence quenching; settings: 6.25 mM Ca2+; 10 mM Tris-HCl pH 8.4, 0.3x SGI, 20 nM aptamer; tested at 62.5 nM
[4] = test system: OTAapt31 (DNA, aptamer) GATCGGGTGTGGGTGGCGTAAAGGGAGCATC; test: SGI fluorescence enhancement; settings: 6.25 mM Ca2+; 10 mM Tris-HCl pH 8.4, 0.3x SGI, 20 nM aptamer; no OTA; terminal duplex stem
[5] = test system: OTAapt31-FAM (DNA, aptamer) GATCGGGTGTGGGTGGCGTAAAGGGAGCATC; test: FAM fluorescence quenching on CV addition; settings: 6.25 mM Ca2+; 10 mM Tris-HCl pH 8.4; OTA-folded antiparallel G4
[6] = test system: OTAapt31 (DNA, aptamer) GATCGGGTGTGGGTGGCGTAAAGGGAGCATC; test: SGI fluorescence quenching on CV addition; settings: 6.25 mM Ca2+; 10 mM Tris-HCl pH 8.4, 0.3x SGI; OTA-folded antiparallel G4
[7] = test system: OTAapt31 (DNA, aptamer) GATCGGGTGTGGGTGGCGTAAAGGGAGCATC; test: fluorescence quenching titration; settings: 6.25 mM Ca2+; 10 mM Tris-HCl pH 8.4, 0.2% Tween 20, 0.3x SGI, 20 nM aptamer, room temperature; apparent
[8] = test system: G31C (DNA, aptamer) GGATCGGGTGTGGGTGGCGTAAAGGGAGCATCC; test: fluorescence quenching titration; settings: 6.25 mM Ca2+; 10 mM Tris-HCl pH 8.4, 0.2% Tween 20, 0.3x SGI, 20 nM aptamer, room temperature; apparent
[9] = test system: OTAapt36 (DNA, aptamer) GATCGGGTGTGGGTGGCGTAAAGGGAGCATCGGACA; test: fluorescence quenching titration; settings: 6.25 mM Ca2+; 10 mM Tris-HCl pH 8.4, 0.2% Tween 20, 0.3x SGI, 20 nM aptamer, room temperature; apparent
[10] = test system: OTAapt31-FAM (DNA, aptamer) GATCGGGTGTGGGTGGCGTAAAGGGAGCATC; test: FAM fluorescence quenching titration; settings: 6.25 mM Ca2+; 10 mM Tris-HCl pH 8.4, room temperature; apparent

Structure (SMILES): CCCC[C@@H](C)[C@@H](OC(=O)C[C@@H](CC(=O)O)C(=O)O)[C@H](C[C@@H](C)C[C@H](O)CCCC[C@@H](O)C[C@H](O)[C@H](C)N)OC(=O)C[C@@H](CC(=O)O)C(=O)O
- binding [3]: no

Structure (SMILES): CCCN(CCCN(C)C)c1cc(C=C2Sc3ccccc3N2C)c2ccccc2[n+]1-c1ccccc1
- binding [4]: yes

Structure (SMILES): CN(C)c1ccc(C(=C2C=CC(=[N+](C)C)C=C2)c2ccc(N(C)C)cc2)cc1
- binding [5]: yes
- binding [6]: yes

Structure (SMILES): O=C1C=C2C(=CCOC2O)O1 (stereo not shown)
- binding [3]: no

Second part, the molecule after the results:

- binding [1]: yes
- binding [2]: yes
Structure (SMILES): C=CC1=C(C)C2=Cc3c(C=C)c(C)c4[n]3[Fe]([Cl])[n]3c(c(C)c(CCC(=O)O)c3=CC3=NC(=C4)C(C)=C3CCC(=O)O)=CC1=N2

- IC50 [7]: 20.6 nM
- IC50 [8]: 17.8 nM
- IC50 [9]: 55.7 nM
- IC50 [10]: 19.8 nM
Structure (SMILES): C[C@@H]1Cc2c(Cl)cc(C(=O)N[C@@H](Cc3ccccc3)C(=O)O)c(O)c2C(=O)O1

- binding [3]: no
Structure (SMILES): C[C@@H]1Cc2ccc(C(=O)N[C@@H](Cc3ccccc3)C(=O)O)c(O)c2C(=O)O1

- binding [3]: no
Structure (SMILES): C[C@H]1CCCC(=O)CCC/C=C/c2cc(O)cc(O)c2C(=O)O1
